# Assay results published in ChEMBL document CHEMBL1158459, “Discovery of a peroxisome proliferator activated receptor gamma (PPARgamma) modulator with balanced PPARalpha activity for the treatment of type 2 diabetes and dyslipidemia” (J Med Chem, 2009).
# Active and inactive are the calls of the source. The calls are words filed in the database; no cut-off is given here.
# What was measured:
# [1] = system: Mus musculus; experiment: Antidiabetic activity in ob/ob mouse assessed as reduction in plasma glucose levels at 10 mg/kg, po once daily for 5 days relative to control; format: functional; design: scale not given: the % may be the effect or the level left
# [2] = system: Syrian golden hamster; experiment: Antidiabetic activity in Syrian golden hamster assessed as reduction in triglyceride level at 3 mg/kg, po once daily for 9 days relative to control; format: functional, Mesocricetus auratus; design: scale not given: the % may be the effect or the level left
# [3] = system: Rattus norvegicus; experiment: Toxicity in Sprague-Dawley rat assessed as increase albumin/globulin levels at 60 mg/kg, po once daily for 14 days; format: organism-based; design: dose 60 mg/kg, route oral; conditions: in vivo, 336 h
# [4] = molecular target: Peroxisome proliferator-activated receptor alpha (Canis lupus familiaris, UniProt Q95N78); experiment: Agonist activity at dog PPARalpha receptor; format: functional
# Chain of Peroxisome proliferator-activated receptor alpha (Canis lupus familiaris, UniProt Q95N78) (Q95N78 whole entry): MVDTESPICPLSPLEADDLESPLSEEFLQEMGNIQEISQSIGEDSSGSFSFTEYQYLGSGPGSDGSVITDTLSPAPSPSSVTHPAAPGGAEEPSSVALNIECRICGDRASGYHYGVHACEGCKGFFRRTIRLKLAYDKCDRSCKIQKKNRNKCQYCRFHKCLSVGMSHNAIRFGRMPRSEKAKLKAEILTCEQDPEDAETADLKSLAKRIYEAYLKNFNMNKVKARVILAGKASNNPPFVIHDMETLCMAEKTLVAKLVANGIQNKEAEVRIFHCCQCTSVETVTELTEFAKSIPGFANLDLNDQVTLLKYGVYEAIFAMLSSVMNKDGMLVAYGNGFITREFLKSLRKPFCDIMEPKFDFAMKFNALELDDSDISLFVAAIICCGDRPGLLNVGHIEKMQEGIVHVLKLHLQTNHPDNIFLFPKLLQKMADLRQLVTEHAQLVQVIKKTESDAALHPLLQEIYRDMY
# [5] = system: Rattus norvegicus; experiment: Antidiabetic activity in Zucker fa/fa rat assessed as decrease in free fatty acid levels at 15 mg/kg, po once daily for 7 days; format: functional, organism-based; design: dose 15 mg/kg
# [6] = Agonist activity at hamster PPARalpha receptor; format: functional, Cricetinae
# [7] = molecular target: Oxysterols receptor LXR-beta (Homo sapiens) (UniProt P55055); experiment: Binding affinity to LXRbeta up to 10 uM
# Chain of Oxysterols receptor LXR-beta (Homo sapiens) (P55055 whole entry): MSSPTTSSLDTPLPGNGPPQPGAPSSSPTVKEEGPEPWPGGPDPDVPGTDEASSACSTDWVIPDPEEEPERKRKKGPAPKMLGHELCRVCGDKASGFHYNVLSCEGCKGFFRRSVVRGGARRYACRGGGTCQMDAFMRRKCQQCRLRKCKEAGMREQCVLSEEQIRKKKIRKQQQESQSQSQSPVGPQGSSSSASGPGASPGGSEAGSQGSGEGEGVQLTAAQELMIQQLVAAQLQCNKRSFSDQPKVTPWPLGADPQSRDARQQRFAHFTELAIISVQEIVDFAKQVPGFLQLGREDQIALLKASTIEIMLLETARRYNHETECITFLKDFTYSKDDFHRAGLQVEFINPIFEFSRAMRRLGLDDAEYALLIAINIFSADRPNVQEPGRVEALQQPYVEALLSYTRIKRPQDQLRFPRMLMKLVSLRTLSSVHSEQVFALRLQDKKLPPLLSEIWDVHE
# [8] = AUC in high fat diet-fed streptozotocin-treated mouse at 30 mg/kg, po once daily for 12 days; format: ADME, organism-based; design: dose 30 mg/kg, route oral; conditions: plasma
# [9] = system: Mus musculus; experiment: Antidiabetic activity in high fat diet-fed streptozotocin-treated mouse assessed as reduction in plasma glucose levels at 30 mg/kg, po once daily for 12 days relative to control; format: functional; design: scale not given: the % may be the effect or the level left
# [10] = system: Mus musculus; experiment: Antidiabetic activity in ob/ob mouse assessed as reduction in plasma triglyceride levels at 3 mg/kg, po once daily for 5 days relative to control; format: functional; design: scale not given: the % may be the effect or the level left
# [11] = system: Rattus norvegicus; experiment: Antidiabetic activity in Zucker fa/fa rat assessed as decrease in triglyceride levels at 0.03 mg/kg, po once daily for 7 days; format: functional, organism-based; design: dose 0.03 mg/kg
# [12] = system: Syrian golden hamster; experiment: Antidiabetic activity in Syrian golden hamster assessed as reduction in cholesterol level at 0.3 mg/kg, po once daily for 9 days relative to control; format: functional, Mesocricetus auratus; design: scale not given: the % may be the effect or the level left
# [13] = Cmax in Beagle dog at 1 mg/kg, po once daily for 14 days; format: ADME, organism-based, Canis lupus familiaris; design: dose 1 mg/kg, route oral; conditions: in vivo
# [14] = AUC in Syrian golden hamster at 0.3 mg/kg, po once daily for 9 days; format: ADME, organism-based, Mesocricetus auratus; design: dose 0.3 mg/kg, route oral; conditions: plasma
# [15] = system: Mus musculus; experiment: Antidiabetic activity in C57BLKS/J-m+/+Leprdb db/db mouse assessed as reduction in plasma glucose levels at 10 mg/kg, po once daily for 11 days relative to control; format: functional; design: scale not given: the % may be the effect or the level left
# [16] = system: Canis familiaris; experiment: Antidiabetic activity in Beagle dog assessed as reduction in total cholesterol level at 3 mg/kg, po once daily for 14 days relative to control; format: functional, Canis lupus familiaris; design: scale not given: the % may be the effect or the level left
# [17] = molecular target: T1, Peroxisome proliferator-activated receptor alpha (Mus musculus, UniProt P23204); experiment: Agonist activity at mouse PPARalpha receptor expressed in african green monkey COS1 cells co-transfected with fused yeast Gal4-DBD by transactivation assay; format: functional, cell-based, COS-1
# T1 sequence (P23204 whole entry): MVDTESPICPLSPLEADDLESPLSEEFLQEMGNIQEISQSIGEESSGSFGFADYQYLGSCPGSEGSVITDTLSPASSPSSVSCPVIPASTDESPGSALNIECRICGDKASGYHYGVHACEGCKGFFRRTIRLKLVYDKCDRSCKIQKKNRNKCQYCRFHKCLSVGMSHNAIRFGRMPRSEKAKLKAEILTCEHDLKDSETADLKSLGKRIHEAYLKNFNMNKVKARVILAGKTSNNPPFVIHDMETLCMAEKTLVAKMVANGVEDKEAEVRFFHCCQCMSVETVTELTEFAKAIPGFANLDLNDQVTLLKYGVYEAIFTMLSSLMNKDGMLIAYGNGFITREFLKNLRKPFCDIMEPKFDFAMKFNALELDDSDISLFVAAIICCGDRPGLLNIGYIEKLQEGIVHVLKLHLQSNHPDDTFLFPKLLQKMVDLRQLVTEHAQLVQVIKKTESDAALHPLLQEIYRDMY
# [18] = molecular target: Glucocorticoid receptor (Homo sapiens) (UniProt P04150); experiment: Activity at GR receptor up to 10 uM by transactivation assay
# Chain of Glucocorticoid receptor (Homo sapiens) (P04150 whole entry): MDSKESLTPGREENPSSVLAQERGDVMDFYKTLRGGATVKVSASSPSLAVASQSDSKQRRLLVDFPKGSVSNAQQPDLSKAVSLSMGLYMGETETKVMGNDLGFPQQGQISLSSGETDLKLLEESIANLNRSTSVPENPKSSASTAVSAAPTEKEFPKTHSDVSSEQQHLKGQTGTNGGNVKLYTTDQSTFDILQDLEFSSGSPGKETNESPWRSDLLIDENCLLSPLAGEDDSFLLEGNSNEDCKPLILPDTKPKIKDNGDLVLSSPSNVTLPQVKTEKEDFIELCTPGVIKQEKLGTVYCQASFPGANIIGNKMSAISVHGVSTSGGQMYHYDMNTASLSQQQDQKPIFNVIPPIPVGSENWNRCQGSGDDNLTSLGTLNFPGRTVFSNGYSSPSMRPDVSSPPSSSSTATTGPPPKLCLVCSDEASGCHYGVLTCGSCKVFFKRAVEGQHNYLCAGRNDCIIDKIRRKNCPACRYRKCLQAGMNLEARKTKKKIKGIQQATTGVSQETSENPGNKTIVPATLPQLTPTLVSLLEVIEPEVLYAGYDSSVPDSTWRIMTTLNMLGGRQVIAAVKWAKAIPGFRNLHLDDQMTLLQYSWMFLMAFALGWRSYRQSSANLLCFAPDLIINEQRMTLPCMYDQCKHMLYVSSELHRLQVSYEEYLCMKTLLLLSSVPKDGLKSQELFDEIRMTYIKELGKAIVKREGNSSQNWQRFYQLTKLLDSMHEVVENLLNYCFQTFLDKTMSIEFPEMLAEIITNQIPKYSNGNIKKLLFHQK
# [19] = molecular target: Nuclear receptor subfamily 1 group I member 2 (Homo sapiens, UniProt O75469); experiment: Activity at PXR receptor up to 10 uM by transactivation assay
# Chain of Nuclear receptor subfamily 1 group I member 2 (O75469 whole entry): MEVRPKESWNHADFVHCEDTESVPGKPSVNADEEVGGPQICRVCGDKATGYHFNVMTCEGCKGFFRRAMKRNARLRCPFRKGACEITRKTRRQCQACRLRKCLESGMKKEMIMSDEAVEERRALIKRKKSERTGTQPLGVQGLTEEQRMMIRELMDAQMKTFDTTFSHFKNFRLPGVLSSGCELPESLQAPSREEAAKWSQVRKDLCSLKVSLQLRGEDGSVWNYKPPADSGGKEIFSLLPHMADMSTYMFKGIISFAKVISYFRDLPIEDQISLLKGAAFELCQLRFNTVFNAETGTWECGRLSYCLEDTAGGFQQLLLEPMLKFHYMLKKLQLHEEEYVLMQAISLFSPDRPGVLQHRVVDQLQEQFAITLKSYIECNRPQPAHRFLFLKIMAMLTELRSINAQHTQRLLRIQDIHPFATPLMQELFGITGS
# [20] = molecular target: Oxysterols receptor LXR-beta (Homo sapiens) (UniProt P55055); experiment: Activity at LXRbeta receptor up to 10 uM by transactivation assay
# [21] = system: Mus musculus; experiment: Antidiabetic activity in C57BLKS/J-m+/+Leprdb db/db mouse assessed as reduction in plasma glucose levels at 1 mg/kg, po once daily for 11 days relative to control; format: functional; design: scale not given: the % may be the effect or the level left
# [22] = system: Rattus norvegicus; experiment: Antidiabetic activity in po dosed Zucker fa/fa rat assessed as insulin lowering activity treated once daily for 7 days; format: functional
# [23] = system: Rattus norvegicus; experiment: Antidiabetic activity in Zucker fa/fa rat assessed as decrease in free fatty acid levels at 3 mg/kg, po once daily for 7 days; format: functional, organism-based; design: dose 3 mg/kg
# [24] = Cmax in Syrian golden hamster at 3 mg/kg, po once daily for 9 days; format: ADME, organism-based, Mesocricetus auratus; design: dose 3 mg/kg, route oral; conditions: in vivo
# [25] = AUC in high fat diet-fed streptozotocin-treated mouse at 5 mg/kg, po once daily for 12 days; format: ADME, organism-based; design: dose 5 mg/kg, route oral; conditions: plasma
# [26] = system: Rattus norvegicus; experiment: Antidiabetic activity in Zucker fa/fa rat assessed as decrease in free fatty acid levels at 100 mg/kg, po once daily for 7 days; format: functional, organism-based; design: dose 100 mg/kg
# [27] = system: Rattus norvegicus; experiment: Toxicity in Zucker fa/fa rat assessed as increase in heart weight at 15 mg/kg, po treated once daily for 7 days; format: organism-based; design: dose 15 mg/kg, route oral; conditions: in vivo, 168 h
# [28] = system: Rattus norvegicus; experiment: Toxicity in Sprague-Dawley rat assessed as increase in heart weight at 60 mg/kg, po once daily for 14 days; format: organism-based; design: dose 60 mg/kg, route oral; conditions: in vivo, 336 h
# [29] = system: Mus musculus; experiment: Antidiabetic activity in C57BLKS/J-m+/+Leprdb db/db mouse assessed as reduction in plasma triglyceride levels at 1 mg/kg, po once daily for 11 days relative to control; format: functional; design: scale not given: the % may be the effect or the level left
# [30] = AUC in C57BLKS/J-m+/+Leprdb db/db mouse at 10 mg/kg, po once daily for 11 days; format: ADME, organism-based; design: dose 10 mg/kg, route oral; conditions: plasma
# [31] = system: Rattus norvegicus; experiment: Antidiabetic activity in Zucker fa/fa rat assessed as decrease in free fatty acid levels at 10 mg/kg, po once daily for 7 days; format: functional, organism-based; design: dose 10 mg/kg
# [32] = system: Rattus norvegicus; experiment: Toxicity in Zucker fa/fa rat assessed as increase in plasma volume at 15 mg/kg, po treated once daily for 7 days; format: organism-based; design: dose 15 mg/kg, route oral; conditions: in vivo, 168 h
# [33] = system: Syrian golden hamster; experiment: Antidiabetic activity in Syrian golden hamster assessed as reduction in triglyceride level at 1 mg/kg, po once daily for 9 days relative to control; format: functional, Mesocricetus auratus; design: scale not given: the % may be the effect or the level left
# [34] = AUC in rat at 2 mg/kg, po; format: ADME, organism-based, Plasma; design: dose 2 mg/kg, route oral; conditions: plasma
# [35] = molecular target: Glucocorticoid receptor (Homo sapiens) (UniProt P04150); experiment: Binding affinity to GR up to 10 uM
# [36] = molecular target: Thyroid hormone receptor alpha (Homo sapiens) (UniProt P10827); experiment: Binding affinity to TRalpha up to 10 uM
# Chain of Thyroid hormone receptor alpha (Homo sapiens) (P10827 whole entry): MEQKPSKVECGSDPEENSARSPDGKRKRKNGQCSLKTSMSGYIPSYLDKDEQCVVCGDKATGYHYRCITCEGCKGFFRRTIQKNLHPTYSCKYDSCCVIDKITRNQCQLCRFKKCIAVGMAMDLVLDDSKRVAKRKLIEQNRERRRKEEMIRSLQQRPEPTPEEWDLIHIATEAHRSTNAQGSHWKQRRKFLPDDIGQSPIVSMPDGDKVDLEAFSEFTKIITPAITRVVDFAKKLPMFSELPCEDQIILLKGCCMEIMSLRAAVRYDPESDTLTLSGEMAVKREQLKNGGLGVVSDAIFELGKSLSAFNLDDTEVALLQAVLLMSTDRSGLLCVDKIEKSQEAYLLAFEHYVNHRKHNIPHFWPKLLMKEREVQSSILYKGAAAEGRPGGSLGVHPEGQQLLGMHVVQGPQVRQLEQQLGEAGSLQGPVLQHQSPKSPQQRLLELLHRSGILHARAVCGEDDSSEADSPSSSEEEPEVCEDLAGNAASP
# [37] = system: Mus musculus; experiment: Antidiabetic activity in C57BLKS/J-m+/+Leprdb db/db mouse assessed as reduction in plasma triglyceride levels at 10 mg/kg, po once daily for 11 days relative to control; format: functional; design: scale not given: the % may be the effect or the level left
# [38] = molecular target: Oxysterols receptor LXR-alpha (Homo sapiens) (UniProt Q13133); experiment: Binding affinity to LXRalpha up to 10 uM
# Chain of Oxysterols receptor LXR-alpha (Homo sapiens) (Q13133 whole entry): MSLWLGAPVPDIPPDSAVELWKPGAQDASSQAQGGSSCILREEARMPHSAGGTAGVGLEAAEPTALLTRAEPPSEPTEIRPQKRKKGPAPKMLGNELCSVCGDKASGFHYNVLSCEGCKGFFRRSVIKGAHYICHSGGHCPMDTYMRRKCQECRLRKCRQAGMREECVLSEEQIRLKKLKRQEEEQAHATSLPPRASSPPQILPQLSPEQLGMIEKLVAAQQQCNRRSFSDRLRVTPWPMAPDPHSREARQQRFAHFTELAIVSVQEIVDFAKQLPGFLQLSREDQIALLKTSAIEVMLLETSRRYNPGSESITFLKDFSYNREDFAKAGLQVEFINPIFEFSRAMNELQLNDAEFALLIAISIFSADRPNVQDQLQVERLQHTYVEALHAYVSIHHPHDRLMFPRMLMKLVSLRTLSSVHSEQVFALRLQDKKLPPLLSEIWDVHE
# [39] = system: Rattus norvegicus; experiment: Antidiabetic activity in Zucker fa/fa rat assessed as decrease in triglyceride levels at 1 mg/kg, po once daily for 7 days; format: functional, organism-based; design: dose 1 mg/kg
# [40] = system: Rattus norvegicus; experiment: Antidiabetic activity in Zucker fa/fa rat assessed as decrease in free fatty acid levels at 0.03 mg/kg, po once daily for 7 days; format: functional, organism-based; design: dose 0.03 mg/kg
smiles,measurement,setting,value
CC[C@@H](Oc1cccc(Cn2c(C)c(C(=O)c3ccc(Cl)cc3)c3ccc(OC(F)(F)F)cc32)c1)C(=O)O,Activity,[1],34%
same,Activity,[2],56.9%
same,Activity,[3],45%
same,EC50,[4],0.55 nM
same,Activity,[5],Active
same,EC50,[6],0.46 nM
same,Activity,[7],inactive
same,AUC at 288 h,[8],8.2 µM·h
same,Activity,[9],103%
same,Activity,[10],27%
same,Activity,[11],Active
same,Activity,[12],21.9%
same,Cmax,[13],1030 nM
same,AUC at 216 h,[14],0.13 µM·h
same,Activity,[15],101%
same,Activity,[16],26%
same,EC50,[17],120 nM
same,Activity,[18],inactive
same,Activity,[19],Not Active
same,Activity,[20],inactive
same,Activity,[21],78%
same,ED50,[22],10 µM·h
same,Activity,[23],Active
same,Cmax,[24],600 nM
same,AUC at 288 h,[25],2.7 µM·h
same,Activity,[26],Active
same,Activity,[27],Non-toxic
same,Activity,[28],1%
same,Activity,[29],75%
same,AUC at 264 h,[30],9.6 µM·h
same,Activity,[31],Active
same,Activity,[32],Non-toxic
same,Activity,[33],30.7%
same,AUC,[34],1.5 µM·h
same,Activity,[35],inactive
same,Activity,[36],inactive
same,Activity,[37],84%
same,Activity,[38],inactive
same,Activity,[39],Active
same,Activity,[40],Active
